According to PubChem BioAssay (NCI):
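Five compound concentrations were applied to cells in 96-well plates for 48 hours; endpoints were derived by simple linear interpolation of the resulting dose-response curve. GI50 is the concentration that inhibits growth by half. TGI marks complete inhibition of growth.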

Columns and labels:
Assay in all cases: NCI-60 cell line screen, 48 h
[1] = system: U251 CNS
[2] = system: DU-145 prostate
[3] = system: SF-539 CNS
[4] = system: EKVX NSCLC
[5] = system: MCF7 breast
[6] = system: SF-295 CNS
[7] = system: NCI-H226 lung
[8] = system: UACC-257 melanoma
[9] = system: HOP-62 NSCLC
[10] = system: NCI/ADR-RES ovarian
[11] = system: SK-MEL-5 melanoma

## O=C1/C(=C/c2cccc([N+](=O)[O-])c2)CCCc2ccccc21
[1]
  TGI: 20.9 µM
[2]
  TGI: 28.2 µM
[3]
  TGI: 28.6 µM
[4]
  TGI: 32.5 µM
[5]
  TGI: 15.3 µM
[6]
  TGI: 27.7 µM
[7]
  TGI: 33.2 µM
[8]
  TGI: 30.2 µM
[9]
  TGI: 29.3 µM
[10]
  TGI: 23.8 µM

## CCOC(=O)CCc1c(C(=O)OCC)[nH]c(/C=C2/NC(=O)C(C)=C2CC)c1C
[1]
  TGI: 24.1 µM
[2]
  TGI: 44.6 µM
[3]
  TGI: 44.4 µM
[5]
  TGI: 17.7 µM
[6]
  TGI: 30.6 µM
[7]
  TGI: 48.2 µM
[11]
  TGI: 13.2 µM
[8]
  TGI: 25.3 µM
[9]
  TGI: 29.8 µM
[10]
  TGI: 36.9 µM

## O=C1/C(=C/c2cccc([N+](=O)[O-])c2)COc2ccccc21
[1]
  TGI: 6.83 µM
[4]
  TGI: > 92.2 µM
[6]
  TGI: > 94.5 µM
[7]
  TGI: 22.6 µM
[11]
  TGI: 4.99 µM
[8]
  TGI: > 64.7 µM
[9]
  TGI: > 30.4 µM

## Nc1ncc2c(n1)-c1ccccc1OC2NC1CC1 (stereo unspecified)
[1]
  TGI: > 100 µM
[2]
  TGI: > 100 µM
[3]
  TGI: > 100 µM
[4]
  TGI: > 100 µM
[5]
  TGI: > 100 µM
[6]
  TGI: > 100 µM
[7]
  TGI: > 100 µM
[11]
  TGI: > 100 µM
[8]
  TGI: > 100 µM
[10]
  TGI: > 100 µM

## CC1CN=C(NCc2ccccc2)S1 (stereo unspecified)
[1]
  TGI: > 100 µM
[2]
  TGI: > 100 µM
[3]
  TGI: > 100 µM
[4]
  TGI: > 100 µM
[5]
  TGI: > 100 µM
[7]
  TGI: > 100 µM
[8]
  TGI: > 100 µM
[9]
  TGI: > 100 µM

## CCN(CC)CCCCC1CCN(CC(=O)N2c3ccccc3NC(=O)c3ccccc32)CC1
[3]
  TGI: > 100 µM
[4]
  TGI: > 100 µM
[6]
  TGI: > 100 µM
[7]
  TGI: > 100 µM
[11]
  TGI: > 100 µM
[8]
  TGI: > 100 µM
[9]
  TGI: > 100 µM

## COc1ccc(NC(=O)C2=C(SC)C(C#N)C(=O)N=C2N)cc1 (stereo unspecified)
[1]
  TGI: > 100 µM
[2]
  TGI: > 100 µM
[3]
  TGI: > 100 µM
[4]
  TGI: > 100 µM
[5]
  TGI: > 100 µM
[6]
  TGI: > 100 µM
[7]
  TGI: > 100 µM
[11]
  TGI: > 100 µM
[8]
  TGI: > 100 µM
[9]
  TGI: > 100 µM

## CC(=O)Nc1ccc(-c2nnc(SCC(=O)Nc3ccccc3Cl)o2)cc1
[1]
  TGI: > 100 µM
[3]
  TGI: > 100 µM
[6]
  TGI: > 100 µM
[7]
  TGI: > 100 µM
[11]
  TGI: > 100 µM
[8]
  TGI: > 100 µM
[9]
  TGI: > 100 µM

## COc1cc(/C=C2\CCCC3=C2NC(N)=NC3c2cc(OC)c(OC)c(OC)c2)cc(OC)c1OC (stereo unspecified)
[2]
  GI50: 3.36 µM
  TGI: > 100 µM
[3]
  GI50: 3.27 µM
  TGI: > 100 µM
[4]
  GI50: 3.12 µM
  TGI: > 100 µM
[5]
  GI50: 1.49 µM
  TGI: > 100 µM
[8]
  GI50: 1.25 µM
  TGI: 4.35 µM
[10]
  GI50: 0.29 µM
  TGI: > 100 µM

## CCOc1ccc(NCC(=O)N2CC(=O)Nc3ccccc32)cc1
[1]
  TGI: > 100 µM
[3]
  TGI: > 100 µM
[4]
  TGI: > 100 µM
[6]
  TGI: > 100 µM
[7]
  TGI: > 100 µM
[11]
  TGI: > 100 µM
[8]
  TGI: > 100 µM
[9]
  TGI: > 100 µM

## COC(=O)n1c(=O)nc2c3c(ncn21)Oc1c(c(-c2ccccc2)nn1-c1ccccc1)C3c1ccc(Cl)cc1 (stereo unspecified)
[1]
  TGI: 3.08 µM
[2]
  TGI: 2.98 µM
[3]
  TGI: 3.14 µM
[5]
  TGI: 3.06 µM
[6]
  TGI: 3.04 µM
[7]
  TGI: 3.42 µM
[11]
  TGI: 3.16 µM
[8]
  TGI: 3.76 µM
[9]
  TGI: 3.09 µM
[10]
  TGI: 2.77 µM

## N#Cc1c(-c2ccccc2)c(C#N)c(=O)n(NS(=O)(=O)c2ccccc2)c1O
[1]
  TGI: > 100 µM
[3]
  TGI: > 100 µM
[4]
  TGI: > 100 µM
[5]
  TGI: > 100 µM
[6]
  TGI: > 100 µM
[7]
  TGI: > 100 µM
[11]
  TGI: > 100 µM
[8]
  TGI: > 100 µM
[9]
  TGI: > 100 µM
[10]
  TGI: > 100 µM

## COc1cc(C2c3cccc4cccc(c34)C3CCC(=O)N32)cc(O)c1O (stereo unspecified)
[1]
  TGI: > 50 µM
[2]
  TGI: > 50 µM
[3]
  TGI: > 50 µM
[4]
  TGI: > 50 µM
[5]
  TGI: > 50 µM
[6]
  TGI: > 50 µM
[7]
  TGI: > 50 µM
[8]
  TGI: > 50 µM
[9]
  TGI: > 50 µM
[10]
  TGI: > 50 µM

## Cc1ccc(S(=O)(=O)N/N=C2\C(=O)C3CC2C(Cl)C3Cl)cc1 (stereo unspecified)
[1]
  TGI: > 100 µM
[6]
  TGI: > 100 µM
[7]
  TGI: > 100 µM
[11]
  TGI: > 100 µM
[8]
  TGI: > 100 µM
[9]
  TGI: > 100 µM

## C/C(C=O)=N\Nc1cc(C)c2ccccc2n1
[1]
  TGI: 31.2 µM
[2]
  TGI: 29.9 µM
[3]
  TGI: 28.8 µM
[4]
  TGI: 33.7 µM
[5]
  TGI: 29.5 µM
[6]
  TGI: 39.4 µM
[11]
  TGI: 29.9 µM
[8]
  TGI: 36.6 µM
[9]
  TGI: 29.2 µM
[10]
  TGI: 31 µM

## CC(=O)Nc1c(C)cc(OCC(=O)O)cc1C
[1]
  TGI: > 100 µM
[2]
  TGI: > 100 µM
[4]
  TGI: > 100 µM
[5]
  TGI: > 100 µM
[6]
  TGI: > 100 µM
[7]
  TGI: > 100 µM
[11]
  TGI: > 100 µM
[8]
  TGI: > 100 µM
[9]
  TGI: > 100 µM
[10]
  TGI: > 100 µM

## O=C(O)Cc1cc(=O)oc2cc(O)c(Cl)cc12
[1]
  TGI: > 100 µM
[3]
  TGI: > 100 µM
[4]
  TGI: > 100 µM
[6]
  TGI: > 100 µM
[7]
  TGI: > 100 µM
[11]
  TGI: > 100 µM
[9]
  TGI: > 100 µM

## CC1C2CC(C(C3C(=O)C4CC3C(C)(C)C4C)C2=O)C1(C)C (stereo unspecified)
[1]
  TGI: > 100 µM
[2]
  TGI: > 100 µM
[3]
  TGI: > 100 µM
[4]
  TGI: > 100 µM
[5]
  TGI: > 100 µM
[6]
  TGI: > 100 µM
[7]
  TGI: > 100 µM
[11]
  TGI: > 100 µM
[8]
  TGI: > 100 µM
[9]
  TGI: > 100 µM

## CSc1nc(C)cc(Nc2ccc(O)c(CN3CCCCC3)c2)n1
[2]
  TGI: > 100 µM
[3]
  TGI: > 100 µM
[4]
  TGI: 88.7 µM
[5]
  TGI: > 100 µM
[6]
  TGI: > 100 µM
[7]
  TGI: 84.3 µM
[11]
  TGI: > 100 µM
[9]
  TGI: > 100 µM
[10]
  TGI: > 100 µM

## CC1=NC(=Cc2ccc(Cl)cc2)C(=O)N1n1c(-c2ccccc2)nc2ccccc2c1=O
[2]
  TGI: > 100 µM
[3]
  TGI: > 100 µM
[4]
  TGI: > 100 µM
[5]
  TGI: > 100 µM
[6]
  TGI: > 100 µM
[7]
  TGI: > 100 µM
[11]
  TGI: > 100 µM
[8]
  TGI: 75.5 µM
[9]
  TGI: > 100 µM

## CN(C(=O)C1=CCCCCC1)c1ccccc1I
[1]
  TGI: > 100 µM
[2]
  TGI: > 100 µM
[4]
  TGI: 80.4 µM
[5]
  TGI: > 100 µM
[6]
  TGI: > 100 µM
[11]
  TGI: > 100 µM
[8]
  TGI: > 100 µM
[9]
  TGI: > 100 µM
[10]
  TGI: 68.7 µM

## COc1ccc(/C=C2/C(=O)N(C(=O)c3ccc(Cl)cc3)N=C2C)cc1OC
[1]
  TGI: > 100 µM
[3]
  TGI: > 100 µM
[4]
  TGI: > 100 µM
[6]
  TGI: > 100 µM
[11]
  TGI: > 100 µM
[8]
  TGI: > 100 µM
[9]
  TGI: > 100 µM
